Assay results taken from patent US11590116B2 (THERAVANCE BIOPHARMA R&D IP, LLC, priority 2019, dated 2023).

Legend:
[1] = target: T1, recombinant human ALK5 (TGF-βR1) protein (Homo sapiens, UniProt P36897); test: Biochemical ALK5 (TGF-βR1) assay to measure pKi (LANCE Ultra ULight kinase assay); details: apparent pKi from pIC50 by Cheng-Prusoff, read-out: ALK5 pKi (converted)
T1 construct: purchased Life Technologies PR9075A
T1 sequence (P36897 34-503): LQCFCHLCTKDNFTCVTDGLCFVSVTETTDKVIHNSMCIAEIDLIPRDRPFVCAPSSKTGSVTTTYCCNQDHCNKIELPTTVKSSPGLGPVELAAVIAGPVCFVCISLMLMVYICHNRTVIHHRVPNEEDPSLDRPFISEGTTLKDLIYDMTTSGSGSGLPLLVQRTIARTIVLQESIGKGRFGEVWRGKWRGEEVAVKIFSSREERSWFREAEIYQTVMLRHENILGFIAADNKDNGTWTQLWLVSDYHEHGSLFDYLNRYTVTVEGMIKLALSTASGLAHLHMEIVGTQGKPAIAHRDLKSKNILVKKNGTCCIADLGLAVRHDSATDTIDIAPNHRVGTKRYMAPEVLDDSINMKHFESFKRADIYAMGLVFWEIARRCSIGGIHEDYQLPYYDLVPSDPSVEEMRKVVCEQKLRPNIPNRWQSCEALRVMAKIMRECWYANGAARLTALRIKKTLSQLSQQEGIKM
Method in brief: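 After a 60 min room-temperature preincubation of ALK5 with compound, phosphorylation proceeds 60 min at 37 °C on ATP addition (125 μM as 5× stock). Detection: Eu-labelled phospho-Thr1342 Topo IIα antibody in EDTA buffer, pH 7.0; emission 665 nm.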

[2] = test system: TGF-β-stimulated SMAD3 phosphorylation in BEAS-2B cells; test: Cellular ALK5 potency assay, inhibition of TGF-β stimulated pSMAD3 formation in BEAS-2B cells; assay type: cell-based; details: Homo sapiens; inhibition of TGF-β stimulated pSMAD3 formation, BEAS-2B cells; read-out: BEAS2B pIC50 (converted)
Method in brief: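 BEAS-2B human lung epithelial cells, seeded overnight, were pre-treated with compound in HBSS/25 mM HEPES/1% BSA for 1 h at 37 °C, then stimulated with TGF-β (final 10 ng/mL) for 30 min. Lysates were assayed for pSMAD3 by AlphaLISA; pIC50 came from dose-dependent signal change versus TGF-β-stimulated untreated cells.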

Structure (SMILES)	Ki [1]	IC50 [2]
Cc1cccc(-c2[nH]cnc2-c2ccc3ncc(-c4csc(C(=O)OC5CNC5)n4)cc3c2)n1 [Compound 1046, azetidin-3-yl 4-[6-[5-(6-methyl-2-pyridyl)-1H-imidazol-4-yl]-3-quinolyl]thiazole-2-carboxylate]	0.0398 to 0.316 nM	25.1 to 158 nM
Cc1cccc(-c2[nH]ncc2-c2ccc3nccc(C(=O)O[C@H]4C[C@@H](N)C4)c3c2)n1 [Compound 1047, (3-aminocyclobutyl) 6-[5-(6-methyl-2-pyridyl)-1H-pyrazol-4-yl]quinoline-4-carboxylate]	0.398 to 3.16 nM	25.1 to 158 nM
Cc1cccc(-c2[nH]cnc2-c2ccc3ncc(C(=O)OCCC4CCNCC4)cc3c2)n1 [Compound 1048, 2-(4-piperidyl)ethyl 6-[5-(6-methyl-2-pyridyl)-1H-imidazol-4-yl]quinoline-3-carboxylate]	0.0398 to 0.316 nM	25.1 to 158 nM
Cc1cccc(-c2[nH]cnc2-c2ccc3ncc(-c4ccnc(C(=O)O[C@@H]5CCNC5)c4)cc3c2)n1 [Compound 1050, [(3R)-pyrrolidin-3-yl] 4-[6-[5-(6-methyl-2-pyridyl)-1H-imidazol-4-yl]-3-quinolyl]pyridine-2-carboxylate]	0.0398 to 0.316 nM	200 to 1260 nM
Cc1cccc(-c2[nH]cnc2-c2ccc3ncc(-c4nc(C5=CCNCC5)cs4)cc3c2)n1 [Compound 1051, 2-(6-(5-(6-methylpyridin-2-yl)-1H-imidazol-4-yl)quinolin-3-yl)-4-(1,2,3,6-tetrahydropyridin-4-yl)thiazole]	0.0398 to 0.316 nM	< 20 nM
Cc1cccc(-c2[nH]cnc2-c2ccc3ncc(-c4cnc(C(=O)OCC5CNC5)nc4)cc3c2)n1 [Compound 1052, azetidin-3-ylmethyl 5-[6-[5-(6-methyl-2-pyridyl)-1H-imidazol-4-yl]-3-quinolyl]pyrimidine-2-carboxylate]	0.398 to 3.16 nM	200 to 1260 nM
Cc1cccc(-c2[nH]cnc2-c2ccc3ncc(-c4ccc(C(=O)OCCN5CCNCC5)nc4)cc3c2)n1 [Compound 1054, 2-piperazin-1-ylethyl 5-[6-[5-(6-methyl-2-pyridyl)-1H-imidazol-4-yl]-3-quinolyl]pyridine-2-carboxylate]	0.0398 to 0.316 nM	200 to 1260 nM
Cc1cccc(-c2[nH]cnc2-c2ccc3ncc(-c4ncc(CN5CCNCC5)s4)cc3c2)n1 [Compound 1055, 2-[6-[5-(6-methyl-2-pyridyl)-1H-imidazol-4-yl]-3-quinolyl]-5-(piperazin-1-ylmethyl)thiazole]	0.0398 to 0.316 nM	< 20 nM
Cc1cccc(-c2[nH]cnc2-c2ccc3ncc(-c4ccc5c(c4)CC[C@@H]5N)cc3c2)n1 [Compound 1056, (1S)-5-[6-[5-(6-methyl-2-pyridyl)-1H-imidazol-4-yl]-3-quinolyl]indan-1-amine]	0.0398 to 0.316 nM	25.1 to 158 nM
Cc1cccc(-c2[nH]cnc2-c2ccc3ncc(-c4cc(C(=O)OC5CNC5)cs4)cc3c2)n1 [Compound 1057, azetidin-3-yl 5-[6-[5-(6-methyl-2-pyridyl)-1H-imidazol-4-yl]-3-quinolyl]thiophene-3-carboxylate]	< 0.0316 nM	25.1 to 158 nM
Cc1cccc(-c2[nH]cnc2-c2ccc3ncc(-c4ccnc(C(=O)O[C@H]5CCNC5)c4)cc3c2)n1 [Compound 1058, [(3S)-pyrrolidin-3-yl] 4-[6-[5-(6-methyl-2-pyridyl)-1H-imidazol-4-yl]-3-quinolyl]pyridine-2-carboxylate]	0.0398 to 0.316 nM	200 to 1260 nM
Cc1cccc(-c2[nH]cnc2-c2ccc3ncc(-c4cnc(C(=O)O[C@@H]5CCNC5)nc4)cc3c2)n1 [Compound 1059, [(3R)-pyrrolidin-3-yl] 5-[6-[5-(6-methyl-2-pyridyl)-1H-imidazol-4-yl]-3-quinolyl]pyrimidine-2-carboxylate]	0.0398 to 0.316 nM	200 to 1260 nM
Cc1cccc(-c2[nH]cnc2-c2ccc3ncc(-c4cc(C(=O)O[C@H]5CCNC5)ccn4)cc3c2)n1 [Compound 1060, [(3S)-pyrrolidin-3-yl] 2-[6-[5-(6-methyl-2-pyridyl)-1H-imidazol-4-yl]-3-quinolyl]pyridine-4-carboxylate]	0.0398 to 0.316 nM	25.1 to 158 nM
COC(=O)c1ccnc2ccc(-c3cn[nH]c3-c3cccc(C)n3)cc12 [Compound 1061, methyl 6-[5-(6-methyl-2-pyridyl)-1H-pyrazol-4-yl]quinoline-4-carboxylate]	0.0398 to 0.316 nM	25.1 to 158 nM
Cc1cccc(-c2[nH]cnc2-c2ccc3ncc(-c4cccc(C(=O)OC5CCNCC5)n4)cc3c2)n1 [Compound 1062, 4-piperidyl 6-[6-[5-(6-methyl-2-pyridyl)-1H-imidazol-4-yl]-3-quinolyl]pyridine-2-carboxylate]	0.0398 to 0.316 nM	25.1 to 158 nM
Cc1cccc(-c2[nH]cnc2-c2ccc3ncc(-c4ncc(C(=O)OC5CNC5)cn4)cc3c2)n1 [Compound 1063, azetidin-3-yl 2-[6-[5-(6-methyl-2-pyridyl)-1H-imidazol-4-yl]-3-quinolyl]pyrimidine-5-carboxylate]	0.0398 to 0.316 nM	25.1 to 158 nM
Cc1cccc(-c2[nH]ncc2-c2ccc3nccc(C(=O)O)c3c2)n1 [Compound 1064, 6-[5-(6-methyl-2-pyridyl)-1H-pyrazol-4-yl]quinoline-4-carboxylic acid]	3.98 to 31.6 nM	1580 to 10000 nM
Cc1cccc(-c2[nH]cnc2-c2ccc3ncc(C(=O)OCCN4CCC5NCCC5C4)cc3c2)n1 (centres unmarked) [Compound 1065, 2-(1,2,3,3a,4,6,7,7a-octahydropyrrolo[3,2-c]pyridin-5-yl)ethyl 6-[5-(6-methyl-2-pyridyl)-1H-imidazol-4-yl]quinoline-3-carboxylate]	0.0398 to 0.316 nM	200 to 1260 nM
Cc1cccc(-c2[nH]cnc2-c2ccc3ncc(C(=O)O[C@H]4CC[C@@H](N)CC4)cc3c2)n1 [Compound 1066, (4-aminocyclohexyl) 6-[5-(6-methyl-2-pyridyl)-1H-imidazol-4-yl]quinoline-3-carboxylate]	0.398 to 3.16 nM	200 to 1260 nM
Cc1cccc(-c2[nH]cnc2-c2ccc3ncc(C(=O)OCCN4CCN5CCCC5C4)cc3c2)n1 (centres unmarked) [Compound 1067, 2-(3,4,6,7,8,8a-hexahydro-1H-pyrrolo[1,2-a]pyrazin-2-yl)ethyl 6-[5-(6-methyl-2-pyridyl)-1H-imidazol-4-yl]quinoline-3-carboxylate]	0.0398 to 0.316 nM	25.1 to 158 nM
Cc1cccc(-c2[nH]cnc2-c2ccc3ncc(-c4nc5c(s4)CNCC5)cc3c2)n1 [Compound 1068, 2-[6-[5-(6-methyl-2-pyridyl)-1H-imidazol-4-yl]-3-quinolyl]-4,5,6,7-tetrahydrothiazolo[5,4-c]pyridine]	0.0398 to 0.316 nM	< 20 nM
Cc1cccc(-c2[nH]cnc2-c2ccc3ncc(-c4cc(C(=O)OCC5CNC5)cs4)cc3c2)n1 [Compound 1070, azetidin-3-ylmethyl 5-[6-[5-(6-methyl-2-pyridyl)-1H-imidazol-4-yl]-3-quinolyl]thiophene-3-carboxylate]	< 0.0316 nM	25.1 to 158 nM
CN[C@H]1CC[C@@H](OC(=O)c2cnc3ccc(-c4nc[nH]c4-c4cccc(C)n4)cc3c2)CC1 [Compound 1071, [4-(methylamino)cyclohexyl] 6-[5-(6-methyl-2-pyridyl)-1H-imidazol-4-yl]quinoline-3-carboxylate]	0.398 to 3.16 nM	25.1 to 158 nM
Cc1cccc(-c2[nH]cnc2-c2ccc3ncc(-c4cnc(C(=O)O[C@H]5CCNC5)nc4)cc3c2)n1 [Compound 1072, [(3S)-pyrrolidin-3-yl] 5-[6-[5-(6-methyl-2-pyridyl)-1H-imidazol-4-yl]-3-quinolyl]pyrimidine-2-carboxylate]	0.0398 to 0.316 nM	200 to 1260 nM
Cc1cccc(-c2[nH]cnc2-c2ccc3ncc(-c4nccc(C(=O)O[C@H]5CCNC5)n4)cc3c2)n1 [Compound 1073, [(3S)-pyrrolidin-3-yl] 2-[6-[5-(6-methyl-2-pyridyl)-1H-imidazol-4-yl]-3-quinolyl]pyrimidine-4-carboxylate]	0.398 to 3.16 nM	1580 to 10000 nM
Cc1cccc(-c2[nH]cnc2-c2ccc3ncc(-c4cc(C(=O)OC5CNC5)ccn4)cc3c2)n1 [Compound 1074, azetidin-3-yl 2-[6-[5-(6-methyl-2-pyridyl)-1H-imidazol-4-yl]-3-quinolyl]pyridine-4-carboxylate]	0.0398 to 0.316 nM	25.1 to 158 nM
Cc1cccc(-c2[nH]cnc2-c2ccc3ncc(-c4nccc(C(=O)OC5CNC5)n4)cc3c2)n1 [Compound 1075, azetidin-3-yl 2-[6-[5-(6-methyl-2-pyridyl)-1H-imidazol-4-yl]-3-quinolyl]pyrimidine-4-carboxylate]	0.398 to 3.16 nM	200 to 1260 nM
Cc1cccc(-c2[nH]cnc2-c2ccc3nccc(C(=O)OC[C@H]4CC[C@@H](N)CC4)c3c2)n1 [Compound 1077, (4-aminocyclohexyl)methyl 6-[5-(6-methyl-2-pyridyl)-1H-imidazol-4-yl]quinoline-4-carboxylate]	0.398 to 3.16 nM	25.1 to 158 nM
